Measured values as given in patent publication US20130039928A1, “COMPOSITIONS AND METHODS FOR REVERSING CORTICOSTEROID RESISTANCE OR TREATING RESPIRATORY INFECTIONS” (priority 2010, published 2013).
Entries after “also recorded” stand apart in the source; their conditions may differ.

Columns and labels:
[1] = tested on: MARCO
Description: (§1) Human alveolar macrophages were purified from individual BAL samples by centrifugation and seeded onto 6-well tissue culture plates. After incubation for 2 h, non-adherent cells were removed and the adherent cells were incubated with R, S-sulforaphane (5 μM; LKT Laboratories, Inc., St. Paul, Minn.) and or DMSO in RPMI 1640 culture medium with 10% FBS and 1% penicillin-streptomycin (Invitrogen, Carlsbad, Calif.). After 16-20 h, adherent cells were scraped, suspended in RPMI 1640 culture media and plated onto 96-well tissue culture plates for bacterial phagocytosis and clearance assays. […] For MARCO antibody-depletion, alveolar macrophages were incubated with human anti-MARCO antibody (1 μg/ml; (Hycult, Uden, The Netherlands) for 4 hours prior to bacterial challenge.
(§2) GAPDH was used for normalization.

[2] = tested on: Nrf2; conditions: COPD alveolar macrophages
Description: as §1, §2

[3] = tested on: Pseudomonas aeruginosa; experiment: Phagocytosis assay, FITC-labeled PA, alveolar macrophages; assay type: cell-based, human
Description: as §1
Sputum isolates of nontypeable H. influenzae and P. aeruginosa obtained from patients with COPD at the Department of Veterans Affairs, Western New York Healthcare System were used (S. Sethi, N. Evans, B. J. Grant, T. F. Murphy, N Engl J Med 347, 465 (Aug. 15, 2002); C. S. Berenson, M. A. Garlipp, L. J. Grove, J. Maloney, S. Sethi, J Infect Dis 194, 1375 (Nov. 15, 2006); T. F. Murphy et al., Am J Respir Crit Care Med 177, 853 (Apr. 15, 2008); T. F. Murphy, A. L. Brauer, A. T. Schiffmacher, S. Sethi, Am J Respir Crit Care Med 170, 266 (Aug. 1, 2004)). For bacterial growth, H. influenzae was cultured on chocolate agar or grown in brain heart infusion broth supplemented with 20 μg/mlNAD and 10 μg/ml hemin at 35° C. in 5% CO2. P. aeruginosa was cultured on LB agar plates or in LB broth at 37° C. For FITC-labeling of bacteria, heat inactivated PA and NTHI (10^9 CFU/ml) were resuspended in 1 ml of labeling buffer (0.1 M NaHCO3, pH 9.2) and incubated with fluorescein isothiocyanate (FITC) (Sigma) under constant stiffing in the dark at room temperature for 1 h. Finally, bacteria were washed three times with PBS and dialyzed overnight against PBS. FITC-labeled bacteria were resuspended with PBS at a concentration of 10^9/ml.
(§3) Bacterial phagocytosis was quantified using a flow cytometry analysis.

[4] = tested on: CD80/86, MHC-11, CD14 and CD206; conditions: FACS
Description: To examine the contribution of MARCO in mediating bacterial phagocytosis by alveolar macrophages following sulforaphane treatment, an antibody-depletion approach was employed. The specificity of anti-MARCO antibody was validated by immunoblot analysis (FIG. 12). […] To assess the effect of sulforaphane on the phenotype of macrophages, CD80/86, MHC-11, CD14 and CD206 were analyzed by FACS.

[5] = tested on: Pseudomonas aeruginosa; conditions: alveolar macrophages from mice exposed to CS, ex vivo
Description: After treatment, macrophages (10^5 cells) were incubated with bacteria (PA or NTHI) for 4 h. Subsequently, 100 μL of cell free culture medium was aseptically plated and cultured on tryptose blood and or chocolate agar plates at 37° C. The number of bacterial colonies was counted after 24 h.
as §3
C57BL/6J mice were housed under controlled conditions for temperature and humidity, using a 12-hour light/dark cycle. At 8 weeks of age, mice were exposed to CS for (2.5 h/day for 5 days/week) for 1 week or 6 months using a machine that produces cigarette smoke (TE-10, Teague Enterprises) and reference cigarettes (2R4F) with a total suspended particle concentration of 250 mg/m^3 as previously described (T. E. Sussan et al., Proc Natl Acad Sci USA, (Dec. 22, 2008)). Following exposure to CS, mice were inoculated with PA or NTHI at a dose of 10^3 CFU in 50 μl of PBS intranasally. For sulforaphane administration (0.5 mg/mouse of R, S-sulforaphane in PBS), a nebulizer (Aerogen, Inc., Galway, Ireland) designed specifically for small animals was used.

[6] = tested on: NO; experiment: NO levels and iNOS expression in alveolar macrophages; assay type: cell-based, human; conditions: COPD alveolar macrophages, vs vehicle
Description: (§4) For inducing corticosteroid resistance, PMs were exposed to cigarette smoke condensate (CSC, 100 μg/ml; Murty Pharmaceuticals, Lexington, Ky.) for 16 h. Exposure to S-nitrosoglutathione (GSNO, 10 μM) was limited to 4 h. […] For assessing corticosteroid responsiveness, macrophages were incubated with dexamethasone (1 μM, Sigma) for 1 h followed by LPS (100 ng/ml, Sigma) for additional 4 h.
HDAC activity was measured using a fluorescent derivative of ε-acetyl-lysine from Enzo life sciences (Farmingdale, N.Y.) according to the manufacturer's recommendations. HDAC2 was immunoprecipitated for analysis of enzymatic activity.
(§5) Total RNA was extracted from the cells by lysis and specific binding to a silica membrance (Qiagen RNeasy kit, Qiagen, Valencia, Calif.), and qRT-PCR was performed by using primers and probe sets for human IL-8, NQO1, GCLM, and iNOS (Assay-on-Demand, Applied Biosystems, Foster City, Calif.). A real-time fluorescent PCR system (ABI 7000 Taqman system, Applied Biosystems) was used to perform these assays. β-actin was used as the normalization control.

[7] = tested on: Nrf2; conditions: COPD alveolar macrophages, 5 μM for 16 h
Description: as §4
All immunoblots were performed by using protocols as described previously (Barnes, P. J., N Engl J Med 343, 269-280 (2000)). Rabbit anti-HDAC2 antibody from Santa Cruz Biotechnology (Santa Cruz, Calif.) was used at 1:500 dilutions. Rabbit anti-5-nitroso-cysteine antibody from Alpha diagnostics was used at 1:500 dilutions. Rabbit anti-nitro-tyrosine antibody from Cell Signaling Technology, was used at 1:250 dilution. Rabbit anti-ubiquitin antibody from Santa Cruz Biotechnology (Santa Cruz, Calif.) was used at 1:1000 dilutions. Rabbit anti-GR antibody from Santa Cruz Biotechnology (Santa Cruz, Calif.) was used at a dilution of 1:1000. Rabbit anti-MMP9 antibody from Sigma Aldrich was used at 1:500 dilutions. Rabbit anti-acetyl-lysine antibody from Abcam was used at 1:750 dilutions. Rabbit anti-lamin-B1 from Santa Cruz Biotechnology (Santa Cruz, Calif.) was used at 1:1000 dilutions as a loading control. The Image J program was used for densitometry analyses.
as §5

C[S+]([O-])CCCCN=C=S (stereo not drawn) [sulforaphane]
surface expression of MARCO protein ([1]; COPD alveolar macrophages, flow cytometry, compared to vehicle, p<0.001): 2- to 5 fold | expression of MARCO mRNA ([1]; alveolar macrophages transfected with Nrf2-siRNA, compared to control ssRNA): failed to upregulate the expression of MARCO mRNA | Nrf2-regulated target genes (NQO1 & GPX2) mRNA [2]: upregulation of Nrf2-regulated targets genes | Nrf2 protein levels ([2]; flow cytometry, vs vehicle): elevated levels of Nrf2 protein | phagocytosis of FITC-labeled Pseudomonas aeruginosa ([3]; COPD alveolar macrophages, compared to vehicle): significantly enhanced phagocytosis | bacterial phagocytosis ([3]; Nrf2-siRNA transfected macrophages): failed to do so | bacterial phagocytosis ([3]; alveolar macrophages transfected with control ssRNA): enhanced bacterial phagocytosis | expression of other markers (MHC-11, CD14) [4]: no significant difference | expression of receptors CD80/86 and CD206 [4]: Moderate suppression | bacterial phagocytic ability and clearance [5]: increased bacterial phagocytic ability and clearance | NO levels [6]: significantly lower levels; also recorded: suppressed NO generation | iNOS expression [6]: significantly lower levels | GSH biosynthesizing enzymes (GCLC, GCLM) [7]: significantly elevated | Nrf2-regulated antioxidant genes (NQO1, HO-1) [7]: significantly elevated | Nrf2 nuclear protein levels [7]: significantly elevated
